≈ marks a conversion by molar mass, not a printed value. Like-named read-outs stand apart in the source and are kept apart here.
How the values were obtained:
[1] = tested on: DENV2; assay: Antiviral selectivity panel: DENV2; type: cell-based, dengue virus type 2; conditions: Dengue virus, DENV2, BHK-21, in Mesocricetus auratus; BHK21 (hamster kidney)
[2] = in vitro; type: in vitro ADME; conditions: mouse
[3] = tested on: HBsAg with wildtype HBV PRE; assay: HBV PRE variant phenotyping in Huh-7: wild-type PRE plasmid (HBsAg); type: cell-based; conditions: Hepatitis B virus, Huh-7, 120 h, read-out: HBsAg EC50
[4] = tested on: Wild-type HBV; assay: HBV polymerase variant phenotyping in Huh-7: wild-type; conditions: Hepatitis B virus
[5] = male, C57BL/6J, mouse, in vivo, 24 h
[6] = tested on: panel of RNA and DNA viruses; assay: Antiviral selectivity against a panel of RNA and DNA viruses (summary); type: cell-based
[7] = tested on: Beagle dogs; assay: 13-week repeat-dose toxicity study in dogs; type: in vivo; parameters: key to Testis: Degeneration/Atrophy, Minimal, incidence / Testis: Degeneration/Atrophy, Mild, incidence / Testis: Degeneration/Atrophy, Moderate, incidence / Epididymis: Cellular debris, Minimal, incidence / Epididymis: Cellular debris, Mild, incidence / Epididymis: Cellularity, decreased; sperm, Minimal, incidence / Epididymis: Cellularity, decreased; sperm, Mild, incidence / Epididymis: Cellularity, decreased; sperm, Marked, incidence: - = no AB-161-related findings
[8] = in vitro; conditions: hamster
[9] = tested on: HBV; assay: HBV life cycle analysis in HepG2.2.15 cells; type: cell-based, hepatitis B virus; conditions: ETV 1 μM, GLS4 1 μM, AB-161 100 nM
[10] = target: T1, recombinant human PAPD7 (Homo sapiens, UniProt Q5XG87); assay: PAPD7 ATP depletion assay; type: biochemical; conditions: 12.5 nM enzyme, 750 nM ATP, 3 h, mean of 3 experiments; read-out: IC50, PAPD7-mediated incorporation of ATP
T1 construct: made in house

[11] = tested on: HBV pgRNA and preS/S RNA; assay: Kinetics of HBV RNA degradation in HepAD38 cells (Northern blot); type: cell-based, hepatitis B virus; conditions: HepAD38, GLS4 + AB-161 (100 nM)
[12] = tested on: HBV; assay: HBV-infected primary human hepatocytes (PHH) antiviral assay; type: cell-based; conditions: Hepatitis B virus, Hepatocyte, genotype D
[13] = tested on: HRV; assay: Antiviral selectivity panel: HRV; type: cell-based; conditions: Human rhinovirus sp., HEp-2; HEp2 (human epithelial)
[14] = tested on: HBV; assay: Effective concentration mediating 90% inhibition (EC90), system not given; type: cell-based; conditions: Hepatitis B virus; used for comparison with unbound concentrations; cell system not stated
[15] = tested on: RSV; assay: Antiviral selectivity panel: RSV; type: cell-based; conditions: human respiratory syncytial virus, HEp-2; HEp2 (human epithelial)
[16] = tested on: IAV; assay: microbe, parasite or virus in culture; type: cell-based; conditions: Influenza A virus, MDBK, in Bos taurus, read-out: EC50 (IAV)
[17] = mouse, in vivo
[18] = tested on: HBV pgRNA and preS/S RNA; assay: Northern blot of intracellular HBV RNA in HepG2.2.15 cells; type: cell-based; conditions: Hepatitis B virus, HepG2.2.15, 48 h
[19] = in vitro; type: in vitro ADME; conditions: rat, plasma
[20] = tested on: HIV; assay: Antiviral selectivity panel: HIV; type: cell-based; conditions: Human immunodeficiency virus 1; CEM-22 (human T lymphoblast)
[21] = tested on: HBV; assay: HBV antiviral assay in HepG2.2.15 cells (HBsAg/HBeAg CLIA, secreted HBV DNA PCR); type: cell-based; conditions: Hepatitis B virus, HepG2.2.15, genotype D
[22] = male dogs, 10 mg/kg/day, end of main study (days 97–100)
[23] = male dogs, 10 mg/kg/day, end of main study, 4 examined
[24] = male dogs, 30 mg/kg/day, end of main study (days 97–100)
[25] = male dogs, 30 mg/kg/day, end of main study, 3 examined
[26] = male dogs, 100 mg/kg/day, end of main study (days 97–100)
[27] = male dogs, 100 mg/kg/day, end of main study, 4 examined
[28] = male dogs, 100 mg/kg/day, end of recovery (Day 120)
[29] = male dogs, 100 mg/kg/day, end of recovery (Day 120), 2 examined
[30] = read-out: HBeAg EC50 (converted)

T1 sequence (Q5XG87 226-558): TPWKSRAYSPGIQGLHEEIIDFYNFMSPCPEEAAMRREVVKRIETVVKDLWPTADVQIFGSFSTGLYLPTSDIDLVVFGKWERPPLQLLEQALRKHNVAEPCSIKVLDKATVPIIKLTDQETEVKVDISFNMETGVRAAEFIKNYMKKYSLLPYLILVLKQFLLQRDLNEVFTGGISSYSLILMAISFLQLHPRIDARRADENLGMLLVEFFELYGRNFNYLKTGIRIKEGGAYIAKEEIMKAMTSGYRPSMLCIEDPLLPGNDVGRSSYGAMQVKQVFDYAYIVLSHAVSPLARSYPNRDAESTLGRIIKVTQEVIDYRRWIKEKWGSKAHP

In the case of COc1cc(OC(F)F)c2nc3c(n2c1)C[C@@H](C(C)(C)C)c1cc(C(=O)O)c(=O)[nH]c1-3 [AB-161], the EC50 [1] is reported as > 30000 nM, the “AB-161 estimated to be free” value ([2]; 6 h, 500 ng/mL) is reported as 2.4% and the fraction unbound at 6 h, 500 ng/mL ([2]; plasma) is reported as 0.024. The fraction-unbound factor ([2]; plasma, 6 h, 500 ng/mL) was 0.024, the EC50 [3] was 2.5 nM and the EC50 ([4]; Huh-7, read-out: EC50 (HBsAg)) was 1.9 to 4.9 nM. The EC50 ([4]; Huh-7, read-out: HBsAg, EC50) was 4.9 nM, the “fraction unbound AB-161 in plasma (C24h) below its EC90” value [5] was “at least 1 log10” and the “selectivity for HBV” value ([6]; HBV vs panel of RNA and DNA viruses) was > 10,000 fold. The “activity against a panel of RNA and DNA viruses” value ([6]; all ten viruses, up to the highest concentration tested at 30 μM) was “inactive”, the motor nerve conduction ([7]; dogs) was “No differences from baseline or time-matched controls” and the “animals with persisting peroneal sensory NCV delays” value ([7]; dogs, 100 mg/kg/day recovery cohort, day 119) was 2 of 4. The “animals with peroneal sensory NCV delays” value ([7]; dogs, 100 mg/kg/day, days 71 to 72) was 4 of 12, the “food consumption, electrocardiography, neurological examinations, urinalysis” value ([7]; dogs, 10, 30, or 100 mg/kg/day) was “no AB-161-related effects” and the reproductive safety findings ([7]; female dogs, 13-week administration, all doses) was “no reproductive safety findings”. The “Testis: Degeneration/Atrophy, incidence” value ([7]; male dogs, 10 mg/kg/day, end of main study (day 97–100), 4 examined) was 0, the “Testis weight, % of body weight” value [7, 22] was −9.38 percent difference from the control group means and the “Testis weight, % of brain weight” value [7, 22] was −16.13 percent difference from the control group means. The “Testis weight, absolute value” [7, 22] was −18.03 percent difference from the control group means, the “Epididymis: Cellular debris, Mild, incidence” value [7, 23] was “-” and the “Epididymis: Cellular debris, Minimal, incidence” value [7, 23] was “-”. The “Epididymis: Cellular debris, incidence” value [7, 23] was 0, the “Epididymis: Cellularity, decreased; sperm, Marked, incidence” value [7, 23] was “-” and the “Epididymis: Cellularity, decreased; sperm, Mild, incidence” value [7, 23] was “-”. The “Epididymis: Cellularity, decreased; sperm, Minimal, incidence” value [7, 23] was “-”, the “Epididymis: Cellularity, decreased; sperm, incidence” value [7, 23] was 0 and the “Testis: Degeneration/Atrophy, Mild, incidence” value [7, 23] was “-”. For the same molecule, the “Testis: Degeneration/Atrophy, Minimal, incidence” value [7, 23] was “-”, the “Testis: Degeneration/Atrophy, Moderate, incidence” value [7, 23] was “-” and the “Testis weight, % of body weight” value [7, 24] was −21.93 percent difference from the control group means. For the same molecule, the “Testis weight, % of brain weight” value [7, 24] was −30.73 percent difference from the control group means, the “Testis weight, absolute value” [7, 24] was −34.17 percent difference from the control group means and the “Epididymis: Cellular debris, Mild, incidence” value [7, 25] was 2. The “Epididymis: Cellular debris, Minimal, incidence” value [7, 25] was 0, the “Epididymis: Cellular debris, incidence” value [7, 25] was 2 and the “Epididymis: Cellularity, decreased; sperm, Marked, incidence” value [7, 25] was 0. The “Epididymis: Cellularity, decreased; sperm, Mild, incidence” value [7, 25] was 2, the “Epididymis: Cellularity, decreased; sperm, Minimal, incidence” value [7, 25] was 0 and the “Epididymis: Cellularity, decreased; sperm, incidence” value [7, 25] was 2. The “Testis: Degeneration/Atrophy, Mild, incidence” value [7, 25] was 1, the “Testis: Degeneration/Atrophy, Minimal, incidence” value [7, 25] was 1 and the “Testis: Degeneration/Atrophy, Moderate, incidence” value [7, 25] was 0. The “Testis: Degeneration/Atrophy, incidence” value [7, 25] was 2, the “Testis weight, % of body weight” value [7, 26] was −12.18 percent difference from the control group means and the “Testis weight, % of brain weight” value [7, 26] was −16.10 percent difference from the control group means. The “Testis weight, absolute value” [7, 26] was −20.62 percent difference from the control group means, the “Epididymis: Cellular debris, Mild, incidence” value [7, 27] was 2 and the “Epididymis: Cellular debris, Minimal, incidence” value [7, 27] was 2. For the same molecule, the “Epididymis: Cellular debris, incidence” value [7, 27] was 4, the “Epididymis: Cellularity, decreased; sperm, Marked, incidence” value [7, 27] was 1 and the “Epididymis: Cellularity, decreased; sperm, Mild, incidence” value [7, 27] was 2. For the same molecule, the “Epididymis: Cellularity, decreased; sperm, Minimal, incidence” value [7, 27] was 1, the “Epididymis: Cellularity, decreased; sperm, incidence” value [7, 27] was 4 and the “Testis: Degeneration/Atrophy, Mild, incidence” value [7, 27] was 1. The “Testis: Degeneration/Atrophy, Minimal, incidence” value [7, 27] was 2, the “Testis: Degeneration/Atrophy, Moderate, incidence” value [7, 27] was 1 and the “Testis: Degeneration/Atrophy, incidence” value [7, 27] was 4. The “Testis weight, % of body weight” value [7, 28] was −37.79 percent difference from the control group means, the “Testis weight, % of brain weight” value [7, 28] was −43.49 percent difference from the control group means and the “Testis weight, absolute value” [7, 28] was −42.84 percent difference from the control group means. The “Epididymis: Cellular debris, Mild, incidence” value [7, 29] was “(2) 2 2 2 2”, the “Epididymis: Cellular debris, incidence” value [7, 29] was “(2) 2 2 2 2” and the “Epididymis: Cellularity, decreased; sperm, Moderate, incidence” value [7, 29] was “(2) 2 2 2 2”. The “Epididymis: Cellularity, decreased; sperm, incidence” value [7, 29] was “(2) 2 2 2 2”, the “Testis: Degeneration/Atrophy, Moderate, incidence” value [7, 29] was “(2) 2 2” and the “Testis: Degeneration/Atrophy, incidence” value [7, 29] was “(2) 2 2”. The testis microscopic finding ([7]; male dogs, 30 and 100 mg/kg/day at terminal euthanasia, persisted at end of recovery at 100 mg/kg/day) was “degeneration/atrophy in the testis was noted”, the CC50 [8] was > 30000 nM and the “HBV DNA replication” value [9] was “inhibited”. The “intracellular HBV RNA (pgRNA, preS/S RNA)” value [9] was “inhibited”, the “viral proteins: HBV core and capsid assembly” value [9] was “inhibited” and the IC50 [10] was 1100 nM. For the same molecule, the “levels of pgRNA and preS/S RNA” value ([11]; 8 h and 16 h post-treatment) was “substantially reduced”, the “migration of pgRNA and preS/S RNA (shortening of the viral transcripts)” value ([11]; starting at 2 h post-treatment) was “faster migration” and the EC50 ([12]; read-out: HBV RNA EC50 (converted)) was 9.6 nM. The EC50 [12, 30] was 11.9 nM, the EC50 ([12]; read-out: HBsAg EC50) was 8.5 ± 4.7 nM and the EC50 [13] was > 30000 nM. For the same molecule, the EC90 [14] was 0.0128 µg/mL (≈ 0.0295 µM), the EC50 [15] was > 30000 nM and the EC50 [16] was > 30000 nM. The “liver and kidney function markers (ALT, creatinine)” value [17] was “no significant changes”, the EC50 ([18]; read-out: EC50, steady state level of pgRNA (3.5 kb)) was 6.9 to 21 nM and the EC50 ([18]; read-out: EC50, steady state level of preS/S RNA (2.4/2.1 kb)) was 2.3 to 6.9 nM. For the same molecule, the fraction unbound at 6 h, 500 ng/mL [19] was 0.056, the EC50 [20] was > 30000 nM and the EC50 ([21]; 144 h, 6-day incubation, read-out: HBsAg EC50) was 2.3 ± 1 nM. For the same molecule, the EC50 ([21]; secreted HBV DNA, read-out: HBV DNA EC50 (converted)) was 0.36 nM, the EC50 ([21]; with 40% human serum, read-out: HBsAg (40% human serum) EC50 (converted)) was 63 nM and the EC50 [21, 30] was 13.7 nM.
